Test results from patent US6177447A (Universiteit van Amsterdam, priority 1996, dated 2001).
Several values for one entry are separate records, joined by “and”; a condition that tells them apart may be missing. Equal entries are not always repeated.

Key:
lysosomal a-glucosidase [1] = target: T1, lysosomal a-glucosidase (Homo sapiens, UniProt P10253); assay: lysosomal a-glucosidase in cultured melanoma cells; format: cell-based; set-up: endogenous in cells; settings: at IC50 concentration for glucosylceramidase
lysosomal a-glucosidase [2] = target: T1, lysosomal a-glucosidase; assay: purified lysosomal a-glucosidase activity towards 4MU-a-glucoside; format: biochemical; settings: 4MU-a-glucoside, pH 4.0; read-out: apparent Ki A-GLUCOSIDASE
[3] = target: T2, glucosylceramide synthase (Homo sapiens, UniProt Q16739); assay: glucosylceramide synthase activity in cultured melanoma cells; format: cell-based; settings: at IC50 concentration for glucosylceramidase
T2 sequence (Q16739 1-394): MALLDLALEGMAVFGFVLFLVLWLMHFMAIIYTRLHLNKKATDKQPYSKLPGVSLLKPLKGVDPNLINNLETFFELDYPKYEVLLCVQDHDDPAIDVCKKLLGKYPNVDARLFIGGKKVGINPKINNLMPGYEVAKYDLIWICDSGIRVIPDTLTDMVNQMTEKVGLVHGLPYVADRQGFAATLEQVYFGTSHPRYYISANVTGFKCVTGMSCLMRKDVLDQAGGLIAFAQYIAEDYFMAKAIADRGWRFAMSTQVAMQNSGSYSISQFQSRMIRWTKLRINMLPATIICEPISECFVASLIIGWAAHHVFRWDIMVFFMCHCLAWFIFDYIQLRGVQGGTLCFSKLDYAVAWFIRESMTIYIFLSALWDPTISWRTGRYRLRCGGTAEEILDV

glucosylceramidase [4] = target: T3, glucosylceramidase (Homo sapiens, UniProt Q9HCG7); assay: glucosylceramidase activity towards 4MU-b-glucoside in conduritol B-epoxide pre-treated membrane suspension from human spleen
T3 sequence (Q9HCG7 1-927): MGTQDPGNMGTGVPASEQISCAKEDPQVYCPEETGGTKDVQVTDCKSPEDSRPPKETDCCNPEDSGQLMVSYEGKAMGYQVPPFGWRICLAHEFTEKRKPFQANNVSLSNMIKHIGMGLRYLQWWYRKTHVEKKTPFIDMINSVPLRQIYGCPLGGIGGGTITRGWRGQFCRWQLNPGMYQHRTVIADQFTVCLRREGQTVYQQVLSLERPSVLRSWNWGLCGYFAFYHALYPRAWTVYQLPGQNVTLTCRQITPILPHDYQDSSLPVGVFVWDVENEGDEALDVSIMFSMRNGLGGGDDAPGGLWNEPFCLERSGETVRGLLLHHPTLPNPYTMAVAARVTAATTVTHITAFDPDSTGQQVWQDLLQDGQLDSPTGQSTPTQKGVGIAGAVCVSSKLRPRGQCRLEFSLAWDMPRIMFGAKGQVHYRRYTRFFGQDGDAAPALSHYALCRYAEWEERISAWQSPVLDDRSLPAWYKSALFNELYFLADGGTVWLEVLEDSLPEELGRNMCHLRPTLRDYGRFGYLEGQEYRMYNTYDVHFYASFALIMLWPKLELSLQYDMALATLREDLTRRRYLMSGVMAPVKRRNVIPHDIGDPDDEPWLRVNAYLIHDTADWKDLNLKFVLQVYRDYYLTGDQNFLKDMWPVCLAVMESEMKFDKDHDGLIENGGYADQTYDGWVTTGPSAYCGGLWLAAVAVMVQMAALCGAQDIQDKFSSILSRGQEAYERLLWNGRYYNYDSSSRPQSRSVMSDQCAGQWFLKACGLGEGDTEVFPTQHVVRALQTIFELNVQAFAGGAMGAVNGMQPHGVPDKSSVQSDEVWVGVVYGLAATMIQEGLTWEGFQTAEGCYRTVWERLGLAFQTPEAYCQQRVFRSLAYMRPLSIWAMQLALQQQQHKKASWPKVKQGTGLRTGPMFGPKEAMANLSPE

glycogen synthase = target: T4, glycogen synthase (Rattus norvegicus, UniProt P17625); assay: glycogen synthase in rat hepatocytes; format: cell-based; settings: at IC50 concentration for glucosylceramidase
T4 construct: endogenous in cells; host or cells: rat hepatocytes
T4 sequence (P17625 1-704): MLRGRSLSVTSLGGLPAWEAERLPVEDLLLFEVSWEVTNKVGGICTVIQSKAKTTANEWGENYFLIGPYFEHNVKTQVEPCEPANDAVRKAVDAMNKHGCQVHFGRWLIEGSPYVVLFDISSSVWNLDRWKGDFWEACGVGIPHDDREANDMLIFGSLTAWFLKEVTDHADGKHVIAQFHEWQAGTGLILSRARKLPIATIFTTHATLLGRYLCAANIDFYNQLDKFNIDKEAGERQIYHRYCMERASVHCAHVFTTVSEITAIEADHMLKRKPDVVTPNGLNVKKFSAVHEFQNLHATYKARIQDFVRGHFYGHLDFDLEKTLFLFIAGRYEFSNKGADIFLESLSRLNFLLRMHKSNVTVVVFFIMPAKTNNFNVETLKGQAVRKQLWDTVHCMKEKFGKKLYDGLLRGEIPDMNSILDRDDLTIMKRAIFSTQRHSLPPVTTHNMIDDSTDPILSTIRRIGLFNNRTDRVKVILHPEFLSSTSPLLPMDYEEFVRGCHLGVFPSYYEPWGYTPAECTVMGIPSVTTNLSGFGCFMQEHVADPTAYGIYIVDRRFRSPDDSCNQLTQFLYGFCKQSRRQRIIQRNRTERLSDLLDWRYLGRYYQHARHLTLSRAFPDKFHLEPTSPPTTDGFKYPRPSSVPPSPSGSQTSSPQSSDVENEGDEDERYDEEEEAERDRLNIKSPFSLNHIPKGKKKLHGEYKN

glucocerebrosidase [5] = target: T5, glucocerebrosidase (Homo sapiens, UniProt P04062); assay: glucocerebrosidase activity in intact melanoma cells (4MU-b-glucoside, conduritol B-epoxide sensitive); format: cell-based; set-up: the hydrolysis of 4MU-b-glucoside by cultured melanoma cells; endogenous in cells
T5 sequence (P04062 40-536): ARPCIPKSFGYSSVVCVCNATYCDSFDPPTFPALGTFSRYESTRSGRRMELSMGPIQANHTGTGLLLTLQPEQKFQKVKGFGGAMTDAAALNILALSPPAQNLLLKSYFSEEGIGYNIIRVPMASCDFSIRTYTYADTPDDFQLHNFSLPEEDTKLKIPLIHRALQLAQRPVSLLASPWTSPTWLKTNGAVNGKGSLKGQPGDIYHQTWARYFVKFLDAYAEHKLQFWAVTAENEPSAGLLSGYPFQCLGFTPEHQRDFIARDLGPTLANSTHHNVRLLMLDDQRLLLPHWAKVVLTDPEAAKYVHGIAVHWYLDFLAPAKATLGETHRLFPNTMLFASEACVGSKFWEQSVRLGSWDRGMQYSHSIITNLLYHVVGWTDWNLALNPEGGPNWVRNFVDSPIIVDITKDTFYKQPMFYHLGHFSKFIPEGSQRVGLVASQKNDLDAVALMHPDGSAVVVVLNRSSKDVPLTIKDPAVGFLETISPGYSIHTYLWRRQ

[6] = target: T6, glucocerebrosidase (Ceredase) (Homo sapiens, UniProt P04062); assay: activity of soluble human placental glucocerebrosidase (Ceredase) towards 4MU-b-glucoside; format: biochemical
T6 construct: purchased Genzyme Corp. Boston,USA; host or cells: human placenta
T6 sequence (P04062 40-536): T5 sequence (P04062 40-536)

glucosylceramidase [7] = target: T3, glucosylceramidase; assay: glucosylceramidase activity in intact melanoma cells (4MU-b-glucoside, conduritol B-epoxide insensitive); format: cell-based; set-up: endogenous in cells; settings: IC50 GLUCOSYLCERAMIDASE
glucocerebrosidase [8] = target: T5, glucocerebrosidase; assay: conduritol B-epoxide inhibitable glucocerebrosidase activity in membrane fraction from human spleen; format: biochemical

Structure (SMILES): CC(C)CCC[C@@H](C)[C@H]1CC[C@H]2[C@@H]3CC=C4C[C@@H](OCCCCCN5C[C@H](O)[C@@H](O)[C@H](O)[C@H]5CO)CC[C@]4(C)[C@H]3CC[C@]12C [P24, N-(5-cholesteroloxy-pentyl)-deoxynojirimycin]
- inhibition of lysosomal a-glucosidase (lysosomal a-glucosidase [1]): no inhibition
- Ki (lysosomal a-glucosidase [2]): 7.2 µM
- inhibition of glucosylceramide synthase activity [3]: no inhibition
- IC50 (glucosylceramidase [4]): 100 nM
- Ki (glucosylceramidase [4]): 97 nM
- inhibition of glycogen synthase (glycogen synthase): no inhibition
- IC50 (glucocerebrosidase [5]): 800 nM
- inhibition of glucocerebrosidase activity (glucocerebrosidase [5]; melanoma cells, at IC50 for glucosylceramidase or ten-fold higher concentrations): no significant inhibition
- IC50 [6]: 800 nM
- Ki ([6]; soluble enzyme, 0.25% sodium taurocholate, 0.1% Triton X-100, pH 5.2, read-out: apparent Ki GLUCOCEREBROSIDASE CEREDASE): 960 nM
- IC50 (glucosylceramidase [7]): 50 nM and ~50 nM
- IC50 (glucocerebrosidase [8]): 700 nM
- Ki (glucocerebrosidase [8]; membrane suspension, 4MU-b-glucoside, pH 5.2, read-out: apparent Ki GLUCOCEREBROSIDASE MEMBRANES): 770 nM
